{"source": "patent US20070270393A1", "about": "“Methods and compositions for modulation of sleep cycle” (priority 2006, published 2007)", "key": {"subjects with insomnia": {"system": "subjects with insomnia", "experiment": "Actigraphy measures of TST and WASO, outpatient portion of the insomnia study", "format": "in vivo, human", "details": "Tx (n = 2)"}, "[1]": {"details": "one study, Kawai (1989); cited from earlier work"}, "progesterone receptors": {"molecular_target": "T1, progesterone receptors (Homo sapiens, UniProt P06401)", "T1 sequence (P06401 1-933)": "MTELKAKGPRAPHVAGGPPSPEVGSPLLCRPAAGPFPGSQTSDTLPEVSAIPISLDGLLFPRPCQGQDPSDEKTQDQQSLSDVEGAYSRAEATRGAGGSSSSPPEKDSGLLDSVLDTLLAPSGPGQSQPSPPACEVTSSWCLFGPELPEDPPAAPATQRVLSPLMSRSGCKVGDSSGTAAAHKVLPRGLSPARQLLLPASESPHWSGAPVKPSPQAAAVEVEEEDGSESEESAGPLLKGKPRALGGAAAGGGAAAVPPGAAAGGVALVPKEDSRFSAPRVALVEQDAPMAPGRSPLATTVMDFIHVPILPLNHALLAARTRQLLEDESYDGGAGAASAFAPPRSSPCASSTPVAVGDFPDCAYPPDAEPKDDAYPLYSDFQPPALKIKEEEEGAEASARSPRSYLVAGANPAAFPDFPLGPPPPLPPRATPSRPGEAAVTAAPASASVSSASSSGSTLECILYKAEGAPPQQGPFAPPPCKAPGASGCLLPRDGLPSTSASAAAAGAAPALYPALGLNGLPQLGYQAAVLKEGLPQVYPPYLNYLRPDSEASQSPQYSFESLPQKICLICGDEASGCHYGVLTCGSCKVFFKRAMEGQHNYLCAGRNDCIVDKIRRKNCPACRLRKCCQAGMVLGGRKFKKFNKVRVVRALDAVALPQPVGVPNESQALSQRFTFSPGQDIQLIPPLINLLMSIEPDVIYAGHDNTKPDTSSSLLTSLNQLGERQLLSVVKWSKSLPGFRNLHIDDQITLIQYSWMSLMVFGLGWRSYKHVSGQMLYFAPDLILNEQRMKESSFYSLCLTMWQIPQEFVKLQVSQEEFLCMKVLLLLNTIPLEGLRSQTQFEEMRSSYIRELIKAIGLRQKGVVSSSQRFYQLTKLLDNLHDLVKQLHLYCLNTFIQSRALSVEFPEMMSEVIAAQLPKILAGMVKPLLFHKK", "details": "literature; cited from earlier work"}}, "data": [{"smiles": "CC#C[C@]1(O)CC[C@H]2[C@@H]3CCC4=CC(=O)CCC4=C3[C@@H](c3ccc(N(C)C)cc3)C[C@@]21C", "note": "[mifepristone, 17-beta-hydroxy-11-beta-(4-dimethyl-aminophenyl)-17-alpha-(1-propynyl)-estra-4,9-dien-3-one]", "values": [{"measurement": "D7AV-smin (actigraphy TST)", "setting": "subjects with insomnia; D7AV", "result": 458.86, "unit": "min"}, {"measurement": "D7AV-waso (actigraphy WASO)", "setting": "subjects with insomnia; D7AV", "result": 45.14}, {"measurement": "D20AV-smin (actigraphy TST)", "setting": "subjects with insomnia; D20AV", "result": 448.40, "unit": "min"}, {"measurement": "D20AV-waso (actigraphy WASO)", "setting": "subjects with insomnia; D20AV", "result": 51.70}, {"measurement": "D26AV-smin (actigraphy TST)", "setting": "subjects with insomnia; D26AV", "result": 473.08, "unit": "min"}, {"measurement": "D26AV-waso (actigraphy WASO)", "setting": "subjects with insomnia; D26AV", "result": 31.67}, {"measurement": "excreted in the urine", "setting": "[1]", "result": "less than 0.5 % of the daily dose"}, {"measurement": "antagonist of progesterone receptors", "setting": "progesterone receptors", "result": "powerful antagonist"}]}]}
